Measurements reported in patent US6838414B2, “Substituted aryl sulphonyl(thio)ureas used as herbicides” (Bayer Aktiengesellschaft, priority 1996, dated 2005).

Columns and labels:
Format in all cases: in vivo
weeds [1] = test: Pre-emergence test (overall statement); settings: application rates between 30 g and 125 g of a.i. per hectare
Experimental: (§1) To produce a suitable preparation of active compound, 1 part by weight of active compound is mixed with the stated amount of solvent, the stated amount of emulsifier is added and the concentrate is diluted with water to the desired concentration.
(§2) Seeds of the test plants are sown in normal soil. After about 24 hours, the soil is sprayed with the preparation of the active compound. Advantageously, the amount of water per unit area is kept constant. The active compound concentration in the preparation is not important, only the active compound application rate per unit area is critical.
(§3) After three weeks, the degree of damage to the plants is rated in % damage in comparison with the development of the untreated control.
(§4) The figures denote: • 0%=no effect (like untreated control) • 100%=total destruction

Sorghum = test: Pre-emergence test/greenhouse; settings: after three weeks
Experimental: as §1, §2, §3, §4

Amaranthus = test: Pre-emergence test/greenhouse; settings: after three weeks
Experimental: as §1, §2, §3, §4

Stellaria = test: Pre-emergence test/greenhouse; settings: after three weeks
Experimental: as §1, §2, §3, §4

Alopecurus [2] = test: Pre-emergence test/greenhouse; settings: after three weeks
Experimental: as §1, §2, §3, §4

Lolium = test: Pre-emergence test/greenhouse; settings: after three weeks
Experimental: as §1, §2, §3, §4

Chenopodium = test: Pre-emergence test/greenhouse; settings: after three weeks
Experimental: as §1, §2, §3, §4

weeds [3] = test: Post-emergence test/greenhouse
Experimental: as §1
(§5) Test plants which have a height of 5-15 cm are sprayed with the preparation of the active compound in such a way as to apply the particular amounts of active compound desired per unit area. The concentration of the spray liquor is chosen so that the amounts of active compound desired in each case are applied in 1000 l of water/ha.
as §3, §4

Alopecurus [4] = test: Post-emergence test/greenhouse; settings: rated after three weeks vs untreated control
Experimental: as §1, §5, §3, §4

Abutilon = test: Post-emergence test/greenhouse; settings: rated after three weeks vs untreated control
Experimental: as §1, §5, §3, §4

Matricaria = test: Post-emergence test/greenhouse; settings: rated after three weeks vs untreated control
Experimental: as §1, §5, §3, §4

Echinochloa = test: Post-emergence test/greenhouse; settings: rated after three weeks vs untreated control
Experimental: as §1, §5, §3, §4

[5] = application rate 30 g of ai./ha
[6] = application rate 60 g of ai./ha

SMILES | activity against weeds (weeds [1]) | Sorghum, % damage (Sorghum; 30 g of ai./ha) [%] | Amaranthus, % damage (Amaranthus; 30 g of ai./ha) [%] | Steltaria, % damage (Stellaria; 30 g of ai./ha) [%] | Alopecurus, % damage (Alopecurus [2]; 30 g of ai./ha) [%] | Lolium, % damage (Lolium; 30 g of ai./ha) [%] | Chenopodium, % damage (Chenopodium; 30 g of ai./ha) [%] | activity against weeds (weeds [3]) | degree of damage to the plants, Alopecurus (Alopecurus [4]; [5]) [%] | degree of damage to the plants, Abutilon (Abutilon; [5]) [%] | degree of damage to the plants, Matricaria (Matricaria; [5]) [%] | degree of damage to the plants, Echinochloa (Echinochloa; [5]) [%] | also measured
COc1nc(NC(=O)NS(=O)(=O)c2c(C)cccc2OC(C)C)nc(OC)n1 [Example 38] | very strong activity against weeds | 100 | 80 | 100 | 100 | 100 | 100 | very strong activity against weeds | 60 | 95 | 95 | 70 | –
COc1nc(NC(=O)NS(=O)(=O)c2c(C)cccc2OC(C)C)nc(OC)n1 [Example 39] | very strong activity against weeds | 100 | 100 | 100 | 100 | 100 | 100 | very strong activity against weeds | 90 | 100 | 100 | 95 | –
COc1nc(C)nc(NC(=O)NS(=O)(=O)c2c(C)cccc2OC)n1 [Example 40] | very strong activity against weeds | 100 | 100 | 100 | 100 | 100 | 100 | very strong activity against weeds | 100 | 95 | 100 | 95 | –
COc1cccc(C)c1S(=O)(=O)NC(=O)Nc1nc(C)cc(C)n1 [Example 41] | very strong activity against weeds | 100 | 60 | 80 | 95 | 100 | 100 | very strong activity against weeds | 60 | 90 | 70 | 95 | –
COc1cc(C)nc(NC(=O)NS(=O)(=O)c2c(C)cccc2OC)n1 [Example 43] | very strong activity against weeds | 100 | 100 | 100 | 100 | 100 | 100 | very strong activity against weeds | 60 | 100 | 100 | 95 | –
COc1cc(OC)nc(NC(=O)NS(=O)(=O)c2c(C)cccc2OC)n1 [Example 44] | very strong activity against weeds | 100 | 100 | 100 | 100 | 100 | 100 | very strong activity against weeds | 60 | 100 | 100 | 90 | –
CCCOc1cccc(C)c1S(=O)(=O)NC(=O)Nc1nc(OC)nc(OC)n1 [Example 48] | very strong activity against weeds | – | – | – | – | – | – | very strong activity against weeds | – | – | – | – | Sorghum, % damage (Sorghum; 60 g of ai./ha): 100%; Amaranthus, % damage (Amaranthus; 60 g of ai./ha): 100%; Steltaria, % damage (Stellaria; 60 g of ai./ha): 100%; Alopecurus, % damage (Alopecurus [2]; 60 g of ai./ha): 100%; Lolium, % damage (Lolium; 60 g of ai./ha): 100%; Chenopodium, % damage (Chenopodium; 60 g of ai./ha): 100%; degree of damage to the plants, Alopecurus (Alopecurus [4]; [6]): 95%; degree of damage to the plants, Abutilon (Abutilon; [6]): 100%; degree of damage to the plants, Matricaria (Matricaria; [6]): 90%; degree of damage to the plants, Echinochloa (Echinochloa; [6]): 70%
CCCOc1cccc(C)c1S(=O)(=O)NC(=O)Nc1nc(C)nc(OC)n1 [Example 49] | very strong activity against weeds | 100 | 100 | 100 | 100 | 100 | 100 | very strong activity against weeds | 90 | 100 | 100 | 80 | –
